Reference: patent US6737383B1, “Herbicidal oxadiazolidines” (priority 1999, dated 2004)

Tests used:
blackgrass = experiment: Test B pre/postemergence blackgrass; format: in vivo, Alopecurus myosuroides
Method in brief: (§1)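 Test chemicals in a non-phytotoxic solvent mixture with surfactant were sprayed preemergence onto planted seeds and postemergence onto plants 2 to 18 cm tall (1- to 4-leaf stage). After twelve to sixteen days in a greenhouse, injury was visually rated against untreated controls from 0 (no effect) to 10 (complete control).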

wheat = experiment: Test B pre/postemergence wheat; format: in vivo, Triticum aestivum; settings: for Wheat plant response rating: scale of 0 to 10 where 0 is no effect and 10 is complete control
Method in brief: as §1

bamyardgrass = experiment: Test B flood test barnyardgrass; format: in vivo, Echinochloa crus-galli
Method in brief: (§2)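 Plants were grown to the 2-leaf stage before treatment with test chemical, then held in a greenhouse for twelve to sixteen days. Injury was visually rated against untreated controls on a 0–10 scale, where 0 is no effect and 10 is complete control.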

giant foxtail = experiment: Test B pre/postemergence giant foxtail; format: in vivo, Setaria faberii; settings: for Giant foxtail plant response rating: scale of 0 to 10 where 0 is no effect and 10 is complete control
Method in brief: as §1

pigweed = experiment: Test B pre/postemergence pigweed; format: in vivo, Amaranthus retroflexus; settings: for Redroot pigweed plant response rating: scale of 0 to 10 where 0 is no effect and 10 is complete control
Method in brief: as §1

smallflower flatsedge = experiment: Test B flood test smallflower flatsedge; format: in vivo, Cyperus difformis
Method in brief: as §2

sugar beet = experiment: Test B pre/postemergence sugar beet; format: in vivo, Beta vulgaris; settings: for Sugarbeets plant response rating: scale of 0 to 10 where 0 is no effect and 10 is complete control
Method in brief: as §1

purple nutsedge = experiment: Test B pre/postemergence purple nutsedge; format: in vivo, Cyperus rotundus; settings: for Nutsedge plant response rating: scale of 0 to 10 where 0 is no effect and 10 is complete control
Method in brief: as §1

rice = experiment: Test B flood test rice; format: in vivo, Oryza sativa
Method in brief: as §2

rape = experiment: Test B pre/postemergence rape; format: in vivo, Brassica napus; settings: for Rape plant response rating: scale of 0 to 10 where 0 is no effect and 10 is complete control
Method in brief: as §1

soybean = experiment: Test B pre/postemergence soybean; format: in vivo, Glycine max
Method in brief: as §1

corn = experiment: Test B pre/postemergence corn; format: in vivo, Zea mays; settings: for Corn plant response rating: scale of 0 to 10 where 0 is no effect and 10 is complete control
Method in brief: as §1

duck salad = experiment: Test B flood test duck salad; format: in vivo, Heteranthera limosa
Method in brief: as §2

surinam grass = experiment: Test B pre/postemergence surinam grass; format: in vivo, Brachiaria decumbens
Method in brief: as §1

crabgrass = experiment: Test B pre/postemergence crabgrass; format: in vivo, Digitaria sanguinalis; settings: for Crabgrass plant response rating: scale of 0 to 10 where 0 is no effect and 10 is complete control
Method in brief: as §1

cocklebur = experiment: Test B pre/postemergence cocklebur; format: in vivo, Xanthium strumarium; settings: for Cocklebur plant response rating: scale of 0 to 10 where 0 is no effect and 10 is complete control
Method in brief: as §1

[1] = Postemergence, Rate 125 g/ha, scale 0 to 10, 0 is no effect, 10 is complete control
[2] = Preemergence, Rate 62 g/ha, scale 0 to 10 (0 no effect, 10 complete control)
[3] = Preemergence, Rate 250 g/ha, scale of 0 to 10 where 0 is no effect and 10 is complete control
[4] = Preemergence, Rate 500 g/ha, scale of 0 to 10 where 0 is no effect and 10 is complete control
[5] = Rate 62 g/ha, Postemergence, scale of 0 to 10 where 0 is no effect and 10 is complete control
[6] = Rate 250 g/ha, Postemergence, scale of 0 to 10 where 0 is no effect and 10 is complete control
[7] = Rate 500 g/ha, Postemergence, scale 0 to 10, 0 no effect, 10 complete control
[8] = Postemergence (flood test), Rate 125 g/ha, scale 0 to 10, 0 is no effect, 10 is complete control
[9] = Rate 62 g/ha, Postemergence (flood test species), scale of 0 to 10 where 0 is no effect and 10 is complete control
[10] = Rate 500 g/ha, listed under Postemergence (flood test species), scale 0 to 10, 0 no effect, 10 complete control

CC(C)N(C(=O)n1oc(=O)n(C2CCCO2)c1=O)c1ccc(F)cc1 (stereo not drawn) [Compound 345]
0: Plant response rating, Blackgrass (blackgrass; [1]) | Plant response rating, Blackgrass (blackgrass; [2]) | Blackgrass plant response rating (0 to 10 scale) (blackgrass; Preemergence, Rate 125 g/ha) | Blackgrass plant response rating (blackgrass; [3]) | Blackgrass plant response rating (blackgrass; [4]) | Blackgrass plant response rating (blackgrass; [5]) | Plant response rating, Blackgrass (blackgrass; [6]) | Plant response rating, Blackgrass (blackgrass; [7]) | Plant response rating, Wheat (wheat; [1]) | Plant response rating, Wheat (wheat; [2]) | Wheat plant response rating (0 to 10 scale) (wheat; Preemergence, Rate 125 g/ha) | Wheat plant response rating (wheat; Preemergence, Rate 250 g/ha) | Wheat plant response rating (wheat; Preemergence, Rate 500 g/ha) | Wheat plant response rating (wheat; Rate 62 g/ha, Postemergence) | Plant response rating, Wheat (wheat; [7]) | Plant response rating, Barnyardgrass (bamyardgrass; [8]) | Barnyardgrass plant response rating (bamyardgrass; [9]) | Plant response rating, Barnyardgrass (bamyardgrass; Rate 250 g/ha, Postemergence (flood test species), scale of 0 to 10 where 0 is no effect and 10 is complete control) | Plant response rating, Barnyardgrass (bamyardgrass; [10]) | Plant response rating, Giant foxtail (giant foxtail; [1]) | Plant response rating, Giant foxtail (giant foxtail; [2]) | Giant foxtail plant response rating (0 to 10 scale) (giant foxtail; Preemergence, Rate 125 g/ha) | Giant foxtail plant response rating (giant foxtail; Preemergence, Rate 250 g/ha) | Giant foxtail plant response rating (giant foxtail; Preemergence, Rate 500 g/ha) | Giant foxtail plant response rating (giant foxtail; Rate 62 g/ha, Postemergence) | Plant response rating, Giant foxtail (giant foxtail; [7]) | Plant response rating, Redroot pigweed (pigweed; [1]) | Plant response rating, Redroot pigweed (pigweed; [2]) | Redroot pigweed plant response rating (0 to 10 scale) (pigweed; Preemergence, Rate 125 g/ha) | Redroot pigweed plant response rating (pigweed; Preemergence, Rate 250 g/ha) | Redroot pigweed plant response rating (pigweed; Preemergence, Rate 500 g/ha) | Redroot pigweed plant response rating (pigweed; Rate 62 g/ha, Postemergence) | Plant response rating, Redroot pigweed (pigweed; [7]) | Plant response rating, S. Flatsedge (smallflower flatsedge; [8]) | S. Flatsedge plant response rating (smallflower flatsedge; [9]) | Plant response rating, S. Flatsedge (smallflower flatsedge; [10]) | Plant response rating, Sugarbeets (sugar beet; [1]) | Plant response rating, Sugarbeets (sugar beet; [2]) | Sugarbeets plant response rating (0 to 10 scale) (sugar beet; Preemergence, Rate 125 g/ha) | Sugarbeets plant response rating (sugar beet; Preemergence, Rate 250 g/ha) | Sugarbeets plant response rating (sugar beet; Preemergence, Rate 500 g/ha) | Sugarbeets plant response rating (sugar beet; Rate 62 g/ha, Postemergence) | Plant response rating, Sugarbeets (sugar beet; [7]) | Plant response rating, Nutsedge (purple nutsedge; [1]) | Plant response rating, Nutsedge (purple nutsedge; [2]) | Nutsedge plant response rating (0 to 10 scale) (purple nutsedge; Preemergence, Rate 125 g/ha) | Nutsedge plant response rating (purple nutsedge; Preemergence, Rate 250 g/ha) | Nutsedge plant response rating (purple nutsedge; Preemergence, Rate 500 g/ha) | Nutsedge plant response rating (purple nutsedge; Rate 62 g/ha, Postemergence) | Plant response rating, Nutsedge (purple nutsedge; [7]) | Plant response rating, Rice (rice; [8]) | Rice plant response rating (rice; [9]) | Plant response rating, Rice (rice; [10]) | Plant response rating, Rape (rape; [1]) | Plant response rating, Rape (rape; [2]) | Rape plant response rating (0 to 10 scale) (rape; Preemergence, Rate 125 g/ha) | Rape plant response rating (rape; Preemergence, Rate 250 g/ha) | Rape plant response rating (rape; Preemergence, Rate 500 g/ha) | Rape plant response rating (rape; Rate 62 g/ha, Postemergence) | Plant response rating, Rape (rape; [7]) | Plant response rating, Soybean (soybean; [1]) | Soybean plant response rating (0 to 10 scale) (soybean; Preemergence, Rate 125 g/ha) | Soybean plant response rating (soybean; [5]) | Plant response rating, Soybean (soybean; [7]) | Plant response rating, Corn (corn; [1]) | Plant response rating, Corn (corn; [2]) | Corn plant response rating (0 to 10 scale) (corn; Preemergence, Rate 125 g/ha) | Corn plant response rating (corn; Preemergence, Rate 250 g/ha) | Corn plant response rating (corn; Preemergence, Rate 500 g/ha) | Corn plant response rating (corn; Rate 62 g/ha, Postemergence) | Plant response rating, Corn (corn; [7]) | Plant response rating, Ducksalad (duck salad; [8]) | Ducksalad plant response rating (duck salad; [9]) | Plant response rating, Ducksalad (duck salad; [10]) | Plant response rating, B. signalgrass (surinam grass; [1]) | Plant response rating, B. signalgrass (surinam grass; [2]) | B. signalgrass plant response rating (0 to 10 scale, 0 is no effect, 10 is complete control) (surinam grass; Preemergence, Rate 125 g/ha) | B. signalgrass plant response rating (surinam grass; [3]) | B. signalgrass plant response rating (surinam grass; [4]) | B. signalgrass plant response rating (surinam grass; [5]) | Plant response rating, B. signalgrass (surinam grass; [6]) | Plant response rating, B. signalgrass (surinam grass; [7]) | Plant response rating, Crabgrass (crabgrass; [1]) | Plant response rating, Crabgrass (crabgrass; [2]) | Crabgrass plant response rating (0 to 10 scale) (crabgrass; Preemergence, Rate 125 g/ha) | Crabgrass plant response rating (crabgrass; Preemergence, Rate 250 g/ha) | Crabgrass plant response rating (crabgrass; Preemergence, Rate 500 g/ha) | Crabgrass plant response rating (crabgrass; Rate 62 g/ha, Postemergence) | Plant response rating, Crabgrass (crabgrass; [7]) | Plant response rating, Cocklebur (cocklebur; [1]) | Plant response rating, Cocklebur (cocklebur; [2]) | Cocklebur plant response rating (0 to 10 scale) (cocklebur; Preemergence, Rate 125 g/ha) | Cocklebur plant response rating (cocklebur; Preemergence, Rate 250 g/ha) | Cocklebur plant response rating (cocklebur; Preemergence, Rate 500 g/ha) | Cocklebur plant response rating (cocklebur; Rate 62 g/ha, Postemergence) | Plant response rating, Cocklebur (cocklebur; [7])
